Data from ChEMBL document CHEMBL3875196, “Novel pyrazolo[1,5-a]pyridines with improved aqueous solubility as p110α-selective PI3 kinase inhibitors” (Bioorg Med Chem Lett, 2017).

Columns and labels:
[1] = Inhibition of recombinant mouse p110alpha/N-terminal His-tagged human p85alpha expressed in baculovirus infected Sf21 cells using L-alpha-phosphatidylinositol as substrate after 1 hr in presence of [gamma33]-ATP by thin layer chromatographic analysis
[2] = target: PI3K p110 beta/p85 alpha (Homo sapiens, UniProt P42338); experiment: Inhibition of recombinant human p110beta/N-terminal His-tagged human p85alpha expressed in baculovirus infected sf cells using L-alpha-phosphatidylinositol as substrate after 1 hr in presence of [gamma33]-ATP by thin layer chromatographic analysis
Sequence of PI3K p110 beta/p85 alpha (P27986 whole entry, canonical isoform): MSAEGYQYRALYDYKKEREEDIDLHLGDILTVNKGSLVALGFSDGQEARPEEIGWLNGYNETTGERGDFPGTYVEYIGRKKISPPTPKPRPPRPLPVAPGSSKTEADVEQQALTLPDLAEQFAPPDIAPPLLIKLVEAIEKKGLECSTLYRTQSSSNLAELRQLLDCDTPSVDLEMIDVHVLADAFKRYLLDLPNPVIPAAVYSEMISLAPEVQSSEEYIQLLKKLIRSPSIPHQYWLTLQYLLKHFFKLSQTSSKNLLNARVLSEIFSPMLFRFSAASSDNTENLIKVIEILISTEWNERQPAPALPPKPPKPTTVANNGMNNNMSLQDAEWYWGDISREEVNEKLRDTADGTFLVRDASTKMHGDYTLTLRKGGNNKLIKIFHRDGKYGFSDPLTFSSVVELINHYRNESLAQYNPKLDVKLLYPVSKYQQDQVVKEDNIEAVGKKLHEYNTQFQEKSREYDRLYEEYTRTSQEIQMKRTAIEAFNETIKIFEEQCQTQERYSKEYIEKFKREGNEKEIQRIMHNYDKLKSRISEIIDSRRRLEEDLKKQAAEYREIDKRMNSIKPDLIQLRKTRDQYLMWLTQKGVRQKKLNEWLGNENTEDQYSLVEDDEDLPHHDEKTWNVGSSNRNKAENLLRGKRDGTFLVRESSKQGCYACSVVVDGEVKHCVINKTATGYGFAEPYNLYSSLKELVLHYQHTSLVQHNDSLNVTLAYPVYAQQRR
Sequence of PI3K p110 beta/p85 alpha (P42338 whole entry, canonical isoform): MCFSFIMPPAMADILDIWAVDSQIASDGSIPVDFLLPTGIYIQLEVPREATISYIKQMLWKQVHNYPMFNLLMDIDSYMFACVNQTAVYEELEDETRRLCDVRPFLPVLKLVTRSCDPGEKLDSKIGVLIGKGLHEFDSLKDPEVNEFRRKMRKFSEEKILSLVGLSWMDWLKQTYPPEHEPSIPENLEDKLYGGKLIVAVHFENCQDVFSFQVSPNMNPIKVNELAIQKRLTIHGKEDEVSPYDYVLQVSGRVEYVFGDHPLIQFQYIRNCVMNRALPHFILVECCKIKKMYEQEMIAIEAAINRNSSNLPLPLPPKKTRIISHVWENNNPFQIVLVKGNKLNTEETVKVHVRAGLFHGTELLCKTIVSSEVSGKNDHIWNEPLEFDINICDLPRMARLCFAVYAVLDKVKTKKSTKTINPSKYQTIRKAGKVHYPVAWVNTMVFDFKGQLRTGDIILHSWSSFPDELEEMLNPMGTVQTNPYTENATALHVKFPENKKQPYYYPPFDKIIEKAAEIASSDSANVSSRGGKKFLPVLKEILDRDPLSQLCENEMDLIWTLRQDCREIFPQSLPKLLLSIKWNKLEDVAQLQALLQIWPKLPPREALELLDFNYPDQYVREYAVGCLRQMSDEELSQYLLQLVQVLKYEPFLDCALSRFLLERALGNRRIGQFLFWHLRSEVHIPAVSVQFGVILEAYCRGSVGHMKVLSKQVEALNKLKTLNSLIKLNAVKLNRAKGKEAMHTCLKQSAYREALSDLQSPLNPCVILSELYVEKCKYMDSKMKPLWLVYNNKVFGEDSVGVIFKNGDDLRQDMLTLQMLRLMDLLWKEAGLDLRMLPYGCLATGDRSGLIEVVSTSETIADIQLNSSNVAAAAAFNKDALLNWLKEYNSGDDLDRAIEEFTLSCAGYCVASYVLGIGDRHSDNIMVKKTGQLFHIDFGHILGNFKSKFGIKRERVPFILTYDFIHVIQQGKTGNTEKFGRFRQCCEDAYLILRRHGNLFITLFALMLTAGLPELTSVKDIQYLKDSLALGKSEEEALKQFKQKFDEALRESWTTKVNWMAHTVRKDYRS

[3] = target: T1, Phosphatidylinositol 4,5-bisphosphate 3-kinase catalytic subunit delta isoform (Homo sapiens, UniProt O00329); experiment: Inhibition of p110delta (unknown origin) using L-alpha phosphatidylinositol as substrate after 1 hr in presence of [gamma33]-ATP by thin layer chromatographic analysis
T1 sequence (O00329 whole entry): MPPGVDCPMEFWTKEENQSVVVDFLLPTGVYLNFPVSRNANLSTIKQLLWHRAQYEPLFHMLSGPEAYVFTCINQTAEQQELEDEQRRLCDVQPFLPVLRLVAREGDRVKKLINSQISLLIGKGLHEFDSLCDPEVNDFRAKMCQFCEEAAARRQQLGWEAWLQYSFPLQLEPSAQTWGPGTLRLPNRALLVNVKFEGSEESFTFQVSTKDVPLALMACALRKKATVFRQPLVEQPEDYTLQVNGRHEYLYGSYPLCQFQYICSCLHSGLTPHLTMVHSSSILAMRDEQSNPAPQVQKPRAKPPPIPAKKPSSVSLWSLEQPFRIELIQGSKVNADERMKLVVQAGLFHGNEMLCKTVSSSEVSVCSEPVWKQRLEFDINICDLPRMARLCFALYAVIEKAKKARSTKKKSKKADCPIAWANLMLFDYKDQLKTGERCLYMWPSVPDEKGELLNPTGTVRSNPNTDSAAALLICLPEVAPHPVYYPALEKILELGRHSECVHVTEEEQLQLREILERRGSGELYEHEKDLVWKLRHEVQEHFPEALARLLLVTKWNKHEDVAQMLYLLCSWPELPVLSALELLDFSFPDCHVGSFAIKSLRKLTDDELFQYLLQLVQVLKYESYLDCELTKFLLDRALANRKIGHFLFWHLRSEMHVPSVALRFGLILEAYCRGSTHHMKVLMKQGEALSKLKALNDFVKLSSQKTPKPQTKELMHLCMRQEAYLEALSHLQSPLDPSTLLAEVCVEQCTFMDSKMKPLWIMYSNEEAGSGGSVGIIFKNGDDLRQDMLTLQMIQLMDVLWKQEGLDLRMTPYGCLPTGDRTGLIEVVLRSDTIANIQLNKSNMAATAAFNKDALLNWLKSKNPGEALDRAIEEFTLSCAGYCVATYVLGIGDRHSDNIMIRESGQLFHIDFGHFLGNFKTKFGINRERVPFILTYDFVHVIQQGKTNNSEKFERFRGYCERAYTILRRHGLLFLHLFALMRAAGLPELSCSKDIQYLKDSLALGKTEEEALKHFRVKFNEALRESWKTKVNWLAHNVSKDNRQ

[4] = Antiproliferative activity against wild type p110alpha expressing human NZB5 cells after 5 days by [3H]-thymidine incorporation assay; type: functional, cell-based
[5] = Antiproliferative activity against wild type p110alpha expressing human NZOV9 cells after 5 days by [3H]-thymidine incorporation assay; type: functional, cell-based
[6] = target: Phosphatidylinositol 4,5-bisphosphate 3-kinase catalytic subunit alpha isoform (Homo sapiens, UniProt P42336, H1047R); experiment: Inhibition of p110alpha H1047R mutant in human HCT116 cells assessed as suppression of PKB phosphorylation at Ser473 preincubated for 15 mins followed by insulin stimulation for 5 mins by immunoblot analysis; type: cell-based, HCT-116
Sequence of Phosphatidylinositol 4,5-bisphosphate 3-kinase catalytic subunit alpha isoform (P42336 whole entry H1047R, canonical isoform): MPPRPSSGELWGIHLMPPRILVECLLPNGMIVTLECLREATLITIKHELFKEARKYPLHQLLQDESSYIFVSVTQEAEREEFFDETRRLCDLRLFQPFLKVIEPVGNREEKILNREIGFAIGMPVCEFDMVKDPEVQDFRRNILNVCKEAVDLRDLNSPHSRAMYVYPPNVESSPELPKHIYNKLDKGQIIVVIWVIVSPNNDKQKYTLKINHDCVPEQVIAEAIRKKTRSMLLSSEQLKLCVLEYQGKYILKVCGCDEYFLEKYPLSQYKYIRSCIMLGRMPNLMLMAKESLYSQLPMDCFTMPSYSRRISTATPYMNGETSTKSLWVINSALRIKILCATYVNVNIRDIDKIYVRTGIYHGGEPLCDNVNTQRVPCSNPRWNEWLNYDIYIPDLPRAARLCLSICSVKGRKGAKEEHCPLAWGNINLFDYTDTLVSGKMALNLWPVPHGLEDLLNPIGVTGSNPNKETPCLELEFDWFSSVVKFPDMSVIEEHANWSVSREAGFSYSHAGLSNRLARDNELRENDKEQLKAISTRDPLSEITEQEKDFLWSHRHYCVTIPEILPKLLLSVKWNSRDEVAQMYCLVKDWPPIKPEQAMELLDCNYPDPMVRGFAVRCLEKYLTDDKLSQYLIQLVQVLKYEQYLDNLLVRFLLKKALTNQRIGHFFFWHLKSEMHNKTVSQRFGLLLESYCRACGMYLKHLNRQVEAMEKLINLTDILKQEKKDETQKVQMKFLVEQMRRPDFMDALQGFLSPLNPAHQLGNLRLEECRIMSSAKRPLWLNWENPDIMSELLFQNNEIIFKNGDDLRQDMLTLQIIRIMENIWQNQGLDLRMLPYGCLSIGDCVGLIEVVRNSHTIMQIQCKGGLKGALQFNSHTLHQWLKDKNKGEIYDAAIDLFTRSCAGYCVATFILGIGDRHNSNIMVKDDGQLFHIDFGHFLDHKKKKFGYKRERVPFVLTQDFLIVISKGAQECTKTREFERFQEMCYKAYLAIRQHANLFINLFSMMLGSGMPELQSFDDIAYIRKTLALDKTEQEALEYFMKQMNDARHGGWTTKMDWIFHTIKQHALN

[7] = system: Mus musculus; experiment: Toxicity in NIH3 mouse assessed as change in body weight at 20 to 40 mg/kg, ip; type: organism-based; settings: in vivo
[8] = Selectivity ratio of IC50 for human p110beta to IC50 for recombinant mouse p110alpha/N-terminal His-tagged human p85alpha
[9] = Selectivity ratio of IC50 for p110delta (unknown origin) to IC50 for recombinant mouse p110alpha/N-terminal His-tagged human p85alpha
[10] = Solubility of the compound in water by HPLC analysis; type: physicochemical

Compound	IC50 [1] [nM]	IC50 [2] [nM]	IC50 [3] [nM]	IC50 [4] [nM]	IC50 [5] [nM]	IC50 [6] [nM]	Activity [7]	Ratio IC50 [8]	Ratio IC50 [9]	solubility [10] [µg/mL]
CN(CCn1ccnc1)c1ccc([N+](=O)[O-])cc1S(=O)(=O)N(C)/N=C/c1cnn2ccc(C#N)cc12	31	150	100	5	45	111	–	–	–	–
CN(C)CCCN(C)c1ccc([N+](=O)[O-])cc1S(=O)(=O)N(C)/N=C/c1cnn2ccc(C#N)cc12	16	76	100	4	25	72	Toxic	–	–	–
CN(CCN1CCOCC1)c1ccc([N+](=O)[O-])cc1S(=O)(=O)N(C)/N=C/c1cnn2ccc(C#N)cc12	19	1000	74	260	210	–	–	–	–	–
CN(Cc1ccccn1)c1ccc([N+](=O)[O-])cc1S(=O)(=O)N(C)/N=C/c1cnn2ccc(C#N)cc12	10	450	130	90	330	–	–	–	–	–
C/C(=N\NS(=O)(=O)c1cc([N+](=O)[O-])ccc1N(C)Cc1ccccn1)c1cnn2ccc(Br)cc12	7.3	5600	292	96	2800	–	–	800	2000	–
C/C(=N\N(C)S(=O)(=O)c1cc([N+](=O)[O-])ccc1N(C)Cc1ccccn1)c1cnn2ccc(C#N)cc12	5.2	9400	575	2200	2300	–	–	40	100	–
CN(/N=C/c1cnn2ccc(C#N)cc12)S(=O)(=O)c1cc([N+](=O)[O-])ccc1NCc1ccccn1	25	> 1000	350	1100	680	–	–	–	–	–
CN(CCc1c[nH]cn1)c1ccc([N+](=O)[O-])cc1S(=O)(=O)N(C)/N=C/c1cnn2ccc(C#N)cc12	18	740	88	3	57	67	Toxic	–	–	–
CN(CCc1ccccn1)c1ccc([N+](=O)[O-])cc1S(=O)(=O)N(C)/N=C/c1cnn2ccc(C#N)cc12.Cl	–	–	–	–	–	–	–	–	–	5.7
C/C(=N\NS(=O)(=O)c1cc([N+](=O)[O-])ccc1N(C)Cc1ccccn1)c1cnn2ccc(C#N)cc12	4.8	207	11	97	3200	–	–	–	–	–
CN(CCc1ccncc1)c1ccc([N+](=O)[O-])cc1S(=O)(=O)N(C)/N=C/c1cnn2ccc(C#N)cc12	17	160	61	< 2	250	–	–	–	–	–
CN(/N=C/c1cnn2ccc(Br)cc12)S(=O)(=O)c1cc([N+](=O)[O-])ccc1OCCN1CCOCC1	51	2900	350	270	550	–	–	–	–	–
CN(C)CCN(C)c1ccc([N+](=O)[O-])cc1S(=O)(=O)N(C)/N=C/c1cnn2ccc(C#N)cc12	46	670	230	49	55	–	–	–	–	–
CN(/N=C/c1cnn2ccc(C#N)cc12)S(=O)(=O)c1cc(C#N)ccc1OCCN1CCOCC1	360	> 1000	680	400	390	–	–	–	–	–
CN(Cc1cccnc1)c1ccc([N+](=O)[O-])cc1S(=O)(=O)N(C)/N=C/c1cnn2ccc(C#N)cc12	5.8	530	160	540	630	–	–	–	–	–
CN(CCc1ccncc1)c1ccc([N+](=O)[O-])cc1S(=O)(=O)N(C)/N=C/c1cnn2ccc(C#N)cc12.Cl	–	–	–	–	–	–	–	–	–	45

Compound	IC50 [1] [nM]	IC50 [2] [nM]	IC50 [3] [nM]	IC50 [4] [nM]	IC50 [5] [nM]	IC50 [6] [nM]	Activity [7]	Ratio IC50 [8]	Ratio IC50 [9]	solubility [10] [µg/mL]
CN(C)CCNc1ccc([N+](=O)[O-])cc1S(=O)(=O)N(C)/N=C/c1cnn2ccc(C#N)cc12	430	> 1000	> 1000	750	640	–	–	–	–	–
C/C(=N\N(C)S(=O)(=O)c1cc([N+](=O)[O-])ccc1N(C)CCN(C)C)c1cnn2ccc(C#N)cc12	328	> 1000	658	1800	860	–	–	–	–	–
CN(CCN)c1ccc([N+](=O)[O-])cc1S(=O)(=O)N(C)/N=C/c1cnn2ccc(C#N)cc12	50	> 1000	470	29	57	–	–	–	–	–
CN(C)CCN(C)c1ccc([N+](=O)[O-])cc1C(=O)N(C)/N=C/c1cnn2ccc(C#N)cc12	580	230	68	5600	3100	–	–	–	–	–
CN(CCc1c[nH]cn1)c1ccc([N+](=O)[O-])cc1S(=O)(=O)N(C)/N=C/c1cnn2ccc(C#N)cc12.Cl	–	–	–	–	–	–	–	–	–	900
CN(C)CCCN(C)c1ccc([N+](=O)[O-])cc1S(=O)(=O)N(C)/N=C/c1cnn2ccc(C#N)cc12.Cl	–	–	–	–	–	–	–	–	–	1200
CN(CCn1ccnc1)c1ccc([N+](=O)[O-])cc1S(=O)(=O)N(C)/N=C/c1cnn2ccc(C#N)cc12.Cl	–	–	–	–	–	–	–	–	–	1000
C/C(=N\NS(=O)(=O)c1cc([N+](=O)[O-])ccc1N(C)CCN(C)C)c1cnn2ccc(Br)cc12	208	> 1000	> 1000	420	420	–	–	–	–	–
CN(/N=C/c1cnn2ccc(C#N)cc12)S(=O)(=O)c1cc([N+](=O)[O-])ccc1OCCN1CCOCC1	21	220	94	440	410	–	–	–	–	–
CN(Cc1ccncc1)c1ccc([N+](=O)[O-])cc1S(=O)(=O)N(C)/N=C/c1cnn2ccc(C#N)cc12	15	390	150	44	480	–	–	–	–	–
CN(CCc1cccnc1)c1ccc([N+](=O)[O-])cc1S(=O)(=O)N(C)/N=C/c1cnn2ccc(C#N)cc12.Cl	–	–	–	–	–	–	–	–	–	24
CN(/N=C/c1cnn2ccc(C#N)cc12)S(=O)(=O)c1cc([N+](=O)[O-])ccc1NCCN1CCOCC1	9	> 1000	27	9400	> 20000	–	–	–	–	–
CN(CCCN1CCOCC1)c1ccc([N+](=O)[O-])cc1S(=O)(=O)N(C)/N=C/c1cnn2ccc(C#N)cc12	26	510	170	71	560	–	–	–	–	–
CN(C)CCOc1ccc([N+](=O)[O-])cc1S(=O)(=O)N(C)/N=C/c1cnn2ccc(C#N)cc12	75	> 1000	> 1000	100	170	–	–	–	–	–
CCN(CC)CCN(C)c1ccc([N+](=O)[O-])cc1S(=O)(=O)N(C)/N=C/c1cnn2ccc(C#N)cc12	75	330	66	500	340	–	–	–	–	–
